ChEMBL document CHEMBL1150943, “Three dolabellanes and a macrolide from the sponge Dysidea sp. from Palau” (J Nat Prod, 1998)

How the values were obtained:
HCT-116 = assay: Cytotoxicity against human HCT116 cells after 72 hrs by MTS assay; type: functional, cell-based; settings: HCT-116, 72 h
A2780 = assay: Cytotoxicity against human A2780 cells after 72 hrs by MTS assay; type: functional, cell-based; settings: A2780, 72 h

Structure (SMILES)	IC50 (HCT-116) [µM]	IC50 (A2780) [µM]
CC(=O)O[C@H]1C/C(C)=C/C(=O)C[C@@H](C)/C=C/[C@@]2(C)CC[C@@H](C(C)(C)OC(C)=O)[C@H]12 (relative stereo)	80	42
CC(=O)O[C@H]1/C=C(/C)CC(=O)C[C@@H](C)/C=C/[C@@]2(C)CC[C@@H](C(C)(C)OC(C)=O)[C@H]12 (relative stereo)	–	25
C=C(CCCC(O)CC(C)O)C[C@H]1CC(=C)C[C@@H](O)C/C(C)=C/[C@H](O)CCCC(=O)O1 (stereo not given in full) [ARENOLIDE]	21	9.8
